Laboratory results as given in patent US20230056888A1, “COMPOSITIONS COMPRISING CYANIDIN-3-GALACTOSIDE FOR USE AS VASORELAXANT” (Evonik Operations GmbH, priority 2019, published 2023).
“Also recorded” adds a separate entry of the source.

How the values were obtained:
NADPH oxidase = NADPH oxidase activity (lucigenin-enhanced chemiluminescence) in mesenteric arteries after Angiotensin II; assay type: cell-based, mice; details: for NADPH oxidase (NOX) activity after stimulation with Angiotensin II: single anthocyanins 50 μg/mL, smaller reduction than Healthberry 865®
Protocol: Vessels were homogenized in a buffer containing protease inhibitors (mmol/L: 20 monobasic potassium phosphate, 1 EGTA, 0.01 aprotinin, 0.01 leupeptin, 0.01 pepstatin, 0.5 phenylmethylsulfonyl fluoride, pH 7.0). Protein content was measured in an aliquot of the homogenate by Bradford method. In some experiments, cells and vessels were pre-incubated with pharmacological inhibitors before measurements. The reaction was started by the addition of NADPH (0.1 mmol/l) and lucigenin (5 μmol/l) to each well. The chemiluminescence was measured using Tecan Infinite Pro M200 multimode microplate at 37° C.
(§1) Vessels were pre-treated with single anthocyanins (50 μg/mL) for 1 hours and then stimulated with Angiotensin II for 15 minutes prior to the acquisition. […] Data are expressed as increase of chemiluminescence per minute.
(§2) Data are expressed as increase of chemiluminescence per minute. Statistical analysis were performed using One-way ANOVA followed Bonferroni post-hoc test.

mice mesenteric arteries = assay: Vascular reactivity of phenylephrine-precontracted mice mesenteric arteries, alone or with selective inhibitors; assay type: cell-based; details: for direct vasorelaxant action of single anthocyanin, compared with Healthberry 865®: increasing doses 1-100 μg/mL; for vasorelaxation reached by single anthocyanin: dose-response curves 1-100 μg/mL; for vasorelaxant effect in presence of Akt inhibitor: Akt inh 1 μM; for vasorelaxant effect in presence of Akt inhibitor / vasorelaxant effect in presence of PI3K inhibitor LY294002: 1 h; for vasorelaxant effect in presence of L-NAME (eNOS inhibitor): L-NAME 300 μM, 30 min pre-treatment; for vasorelaxant effect in presence of PI3K inhibitor LY294002: LY294002 10 μM
[1] = test system: reactive oxygen species (ROS) in mouse mesenteric arteries; assay: Total ROS production (DHE / DHR123) in mesenteric arteries stimulated with Angiotensin II; assay type: cell-based; details: 50 μg/mL, 1 hour pre-treatment, then Angiotensin II 15 minutes, confirmed by DHR123
Protocol: Dihydroethidium (DHE, Life Technologies) was used to evaluate production of reactive oxygen species (ROS) in mouse mesenteric arteries, as previously described. Briefly, vessels were incubated with 5 μM of DHE for 20 min and subsequently observed under a fluorescence microscope (Zeiss). Images were acquired by a digital camera system (Olympus Soft Imaging Solutions). […] After treatment, vessels were incubated with Krebs solution containing 5 μM DHR123 for 30 min at 37° C., and then washed two times with PBS prior to fluorescence measurement using a fluorescence microplate reader (TECAN infinite 200 Pro).
as §1, §2

[2] = test system: nitric oxide production in mice mesenteric arteries; assay: Evaluation of NO production by DAF-FM in mesenteric arteries; assay type: cell-based; details: HB 50 μg/mL or 100 μg/mL; single anthocyanins 50 μg/mL; comparator acetylcholine 10^-6 M
Protocol: Production of NO was assessed as previously described (Carrizzo et al. 2016). Healthberry 865®-865 (100 μg/mL) or acetylcholine (10^-6 M) was administered to the mesenteric artery in the last 30 min of 4-amino-5-methylamino-2,7,-difluorofluorescein diacetate (DAF-FM) incubation, alone and after […] exposure to L-NAME (300 μmol/L, 30 min). Mesenteric segments were cut in 5-μm thick sections, observed under a fluorescence microscope, subsequently counterstained with haematoxylin and eosin and observed under a light microscope.
FIG. 2 D) show representative high-power micrographs of 10 μm sections of mice mesenteric arteries loaded for 2 h with […] (DAF-FM) reveal nitric oxide production after treatment with acetylcholine (Ach 10^-6 M) or HB (50 μg/mL) and after 30 min of pretreatment with L-NAME (300 μmol/L), counterstained with haematoxylin and eosin (HE). Scale bar, 50 μm. E) Semiquantitative analyses of immunoblots of mice mesenteric arteries treated with HB (100 μg/mL) alone, or HB plus Akt inhibitor or LY294002, columns are the mean±SEM of three independent experiments. Statistical analyses were performed using two-way ANOVA followed Bonferroni post-hoc test. *p<0.05; **p<0.01, ***p<0.001.
FIG. 7A-D show vascular response of phenylephrine-precontracted mice mesenteric arteries to increasing doses of a combination of anthocyanins mixed with a ratio 1:1. […]

Compound: COc1cc(-c2[o+]c3cc(O)cc(O)c3cc2O[C@@H]2O[C@H](CO)[C@H](O)[C@H](O)[C@H]2O)cc(OC)c1O [MAL3-gal, Malvidin-3-galactoside]
- NADPH oxidase (NOX) activity after stimulation with Angiotensin II (NADPH oxidase): able to reduce NOX activity
- direct vasorelaxant action of single anthocyanin, compared with Healthberry 865® (mice mesenteric arteries): none of the single anthocyanins was able to evoke a dose-dependent vasorelaxation comparable
- Angiotensin II-induced ROS formation [1]: able to reproduce the antioxidant action

Compound: Peonidin-3-galactoside [PEO3-gal]
- NADPH oxidase (NOX) activity after stimulation with Angiotensin II (NADPH oxidase): able to reduce NOX activity
- direct vasorelaxant action of single anthocyanin, compared with Healthberry 865® (mice mesenteric arteries): none of the single anthocyanins was able to evoke a dose-dependent vasorelaxation comparable
- Angiotensin II-induced ROS formation [1]: able to reproduce the antioxidant action

Compound: C[C@@H]1O[C@@H](OC[C@H]2O[C@@H](Oc3cc4c(O)cc(O)cc4[o+]c3-c3ccc(O)c(O)c3)[C@H](O)[C@@H](O)[C@@H]2O)[C@H](O)[C@H](O)[C@H]1O [C3-rut, Cyanidin-3-rutinoside]
- NADPH oxidase (NOX) activity after stimulation with Angiotensin II (NADPH oxidase): able to reduce NOX activity
- vasorelaxation reached by single anthocyanin (mice mesenteric arteries): ~36.5%
- direct vasorelaxant action of single anthocyanin, compared with Healthberry 865® (mice mesenteric arteries): none of the single anthocyanins was able to evoke a dose-dependent vasorelaxation comparable; also recorded: vasorelaxant effects
- Angiotensin II-induced ROS formation [1]: able to reproduce the antioxidant action

Compound: OC[C@H]1OC(Oc2cc3c(O)cc(O)cc3[o+]c2-c2ccc(O)c(O)c2)[C@H](O)C(O)C1O (stereo partly shown) [C3-gal, Cyanidin-3-galactoside]
- nitric oxide production (DAF-FM fluorescence) [2]: significant increase of nitric oxide production
- vasorelaxant effect in presence of Dorsomorphin (AMPK inhibitor) (mice mesenteric arteries): completely lost its vasorelaxant capability
- vasorelaxant effect in presence of Akt inhibitor (mice mesenteric arteries): did not inhibit
- vasorelaxant effect in presence of L-NAME (eNOS inhibitor) (mice mesenteric arteries): significantly reduced
- vasorelaxant effect in presence of PI3K inhibitor LY294002 (mice mesenteric arteries): did not inhibit
- direct vasorelaxant action of single anthocyanin, compared with Healthberry 865® (mice mesenteric arteries): able to reproduce the direct vasorelaxant effect

Compound: OC[C@H]1O[C@@H](Oc2cc3c(O)cc(O)cc3[o+]c2-c2cc(O)c(O)c(O)c2)[C@H](O)[C@@H](O)[C@H]1O [DP3-gal, Delphinidin-3-galactoside]
- vasorelaxation reached by single anthocyanin (mice mesenteric arteries): about 32.5%
- direct vasorelaxant action of single anthocyanin, compared with Healthberry 865® (mice mesenteric arteries): none of the single anthocyanins was able to evoke a dose-dependent vasorelaxation comparable; also recorded: vasorelaxant effects

Compound: OC[C@H]1O[C@@H](Oc2cc3c(O)cc(O)cc3[o+]c2-c2cc(O)c(O)c(O)c2)[C@H](O)[C@@H](O)[C@@H]1O [DP3-glu, Delphinidin-3-glucoside]
- NADPH oxidase (NOX) activity after stimulation with Angiotensin II (NADPH oxidase): able to reduce NOX activity
- direct vasorelaxant action of single anthocyanin, compared with Healthberry 865® (mice mesenteric arteries): none of the single anthocyanins was able to evoke a dose-dependent vasorelaxation comparable
- Angiotensin II-induced ROS formation [1]: able to reproduce the antioxidant action

Compound: OC[C@H]1O[C@@H](Oc2cc3c(O)cc(O)cc3[o+]c2-c2cc(O)c(O)c(O)c2)[C@H](O[C@@H]2OC[C@@H](O)[C@H](O)[C@H]2O)[C@@H](O)[C@@H]1O [DP3-samb, Delphinidin-3-sambubioside]
- nitric oxide production (DAF-FM fluorescence) [2]: significant increase of nitric oxide production
- vasorelaxant effect in presence of Dorsomorphin (AMPK inhibitor) (mice mesenteric arteries): inhibited
- vasorelaxant effect in presence of Akt inhibitor (mice mesenteric arteries): did not influence
- vasorelaxant effect in presence of L-NAME (eNOS inhibitor) (mice mesenteric arteries): significantly reduced
- vasorelaxant effect in presence of PI3K inhibitor LY294002 (mice mesenteric arteries): inhibited
- direct vasorelaxant action of single anthocyanin, compared with Healthberry 865® (mice mesenteric arteries): able to reproduce the direct vasorelaxant effect

Compound: Oc1cc(O)c2cc(O[C@H]3OC[C@H](O)[C@H](O)[C@H]3O)c(-c3cc(O)c(O)c(O)c3)[o+]c2c1 [DP3-ara, Delphinidin-3-arabinoside]
- direct vasorelaxant action of single anthocyanin, compared with Healthberry 865® (mice mesenteric arteries): none of the single anthocyanins was able to evoke a dose-dependent vasorelaxation comparable; also recorded: vasorelaxant effects

Compound: OC[C@H]1O[C@@H](Oc2cc3c(O)cc(O)cc3[o+]c2-c2ccc(O)c(O)c2)[C@H](O)[C@@H](O)[C@@H]1O [C3-glu, Cyanidin-3-glucoside]
- rank of NOX activity reduction among single anthocyanins relative to Healthberry 865® (NADPH oxidase): most powerful anthocyanins
- NADPH oxidase (NOX) activity after stimulation with Angiotensin II (NADPH oxidase): able to reduce NOX activity
- direct vasorelaxant action of single anthocyanin, compared with Healthberry 865® (mice mesenteric arteries): none of the single anthocyanins was able to evoke a dose-dependent vasorelaxation comparable
- Angiotensin II-induced ROS formation [1]: able to reproduce the antioxidant action

Compound: COc1cc(-c2[o+]c3cc(O)cc(O)c3cc2O[C@@H]2O[C@H](CO)[C@@H](O)[C@H](O)[C@H]2O)cc(OC)c1O [MAL3-glu, Malvidin-3-glucoside]
- rank of NOX activity reduction among single anthocyanins relative to Healthberry 865® (NADPH oxidase): most powerful anthocyanins
- NADPH oxidase (NOX) activity after stimulation with Angiotensin II (NADPH oxidase): able to reduce NOX activity
- direct vasorelaxant action of single anthocyanin, compared with Healthberry 865® (mice mesenteric arteries): none of the single anthocyanins was able to evoke a dose-dependent vasorelaxation comparable
- Angiotensin II-induced ROS formation [1]: able to reproduce the antioxidant action

Compound: COc1cc(-c2[o+]c3cc(O)cc(O)c3cc2O[C@@H]2O[C@H](CO)[C@@H](O)[C@H](O)[C@H]2O)cc(O)c1O [PT3-glu, Petunidin-3-glucoside]
- direct vasorelaxant action of single anthocyanin, compared with Healthberry 865® (mice mesenteric arteries): none of the single anthocyanins was able to evoke a dose-dependent vasorelaxation comparable
